Experiments:
[1] = Anti-nicotine IgG in immunized mice (ELISA); assay type: in vivo, mouse; conditions: FIGS. 36 and 37
OT-II CD4 T cells = assay: In vivo CD4 T cell activation (CFSE-labeled OT-II cells); design: species or system mouse; conditions: with CpG adjuvant, three days after footpad immunization
Procedure: Subsequently, immunization experiments were performed by injecting one footpad with free OVA or with nanoparticles composed of either PLA or PLGA that encapsulated an equivalent amount of OVA as a model antigen. All antigenic mixtures also contained CpG (a TLR9 agonist) as an adjuvant. The animals were injected, sacrificed three days after immunization, and OT-II T cell activation was assessed by flow cytometry in single-cell suspensions from different tissues.
By contrast, activated T cells divide and in the process split the fluorescent dye evenly between the two daughter cells resulting in an incremental decrease in fluorescence intensity upon each successive division. Thus, the greater the left shift in CFSE, fluorescence the stronger T cells were activated.

Compound | production of nicotine antibodies [1] | local T cell proliferation in distal lymphoid tissues (brachial lymph node, spleen) (OT-II CD4 T cells)
CN1CCCC1c1cccnc1 (centres unmarked) [free nicotine, nicotine] | does not elicit the production of nicotine antibodies | 
free OVA: free chicken ovalbumin model antigen |  | only undivided cells or cells with very low CFSE content

— patent publication US8637028B2, “Adjuvant incorporation in immunonanotherapeutics” (President and Fellows of Harvard College, priority 2008, dated 2014)
